Reference: patent US20260000676A1, “CHROMAN DERIVATIVES AS ESTROGEN RECEPTOR DEGRADERS” (THE REGENTS OF THE UNIVERSITY OF MICHIGAN, priority 2022, published 2026)
pIC50: −log10 of the molar value.

What was measured:
CRBN/DDB1 = CRBN/DDB1 (Homo sapiens (Human), UniProt Q96SW2); test: HTRF binding assay to CRBN/DDB1; settings: read-out: CRBN HTRF IC50
Procedure: The binding potency was determined using HTRF assay technology (Perkin Elmer). Compounds were serially diluted in DMSO and 0.2 μL volume was transferred to white 384-well plate.

ERα_LBD(GST) = ERα_LBD(GST) (Homo sapiens (Human), UniProt P03372); test: LanthaScreen TR-FRET ERα competitive binding assay; settings: read-out: ERα HTRF IC50
Sequence of ERα_LBD(GST) (P03372 311-547): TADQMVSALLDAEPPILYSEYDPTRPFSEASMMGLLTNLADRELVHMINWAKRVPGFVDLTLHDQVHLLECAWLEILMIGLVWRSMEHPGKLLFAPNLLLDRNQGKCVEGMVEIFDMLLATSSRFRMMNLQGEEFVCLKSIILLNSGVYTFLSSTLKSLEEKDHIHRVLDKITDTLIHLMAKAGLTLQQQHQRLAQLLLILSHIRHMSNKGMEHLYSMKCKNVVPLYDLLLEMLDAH
Outline: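 GST-tagged ERα LBD (4 nM) with Tb anti-GST (2 nM) and Fluormone ES2 Green tracer (3 nM) in nuclear receptor buffer K plus 5 mM DTT, 1% DMSO; 3-fold compound dilutions, 60 min at room temperature in the dark. TR-FRET 520/495 nm ratio vs log[ligand], sigmoidal fit for IC50; 1 μM ARV_471 as full-inhibition control.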

ER [1] = molecular target: T1, ER (Homo sapiens (Human), UniProt P03372); test: In-cell western (ICW) ER degradation assay in MCF-7 cells; type: cell-based; settings: MCF7, 16 hrs
T1 sequence (P03372 whole entry): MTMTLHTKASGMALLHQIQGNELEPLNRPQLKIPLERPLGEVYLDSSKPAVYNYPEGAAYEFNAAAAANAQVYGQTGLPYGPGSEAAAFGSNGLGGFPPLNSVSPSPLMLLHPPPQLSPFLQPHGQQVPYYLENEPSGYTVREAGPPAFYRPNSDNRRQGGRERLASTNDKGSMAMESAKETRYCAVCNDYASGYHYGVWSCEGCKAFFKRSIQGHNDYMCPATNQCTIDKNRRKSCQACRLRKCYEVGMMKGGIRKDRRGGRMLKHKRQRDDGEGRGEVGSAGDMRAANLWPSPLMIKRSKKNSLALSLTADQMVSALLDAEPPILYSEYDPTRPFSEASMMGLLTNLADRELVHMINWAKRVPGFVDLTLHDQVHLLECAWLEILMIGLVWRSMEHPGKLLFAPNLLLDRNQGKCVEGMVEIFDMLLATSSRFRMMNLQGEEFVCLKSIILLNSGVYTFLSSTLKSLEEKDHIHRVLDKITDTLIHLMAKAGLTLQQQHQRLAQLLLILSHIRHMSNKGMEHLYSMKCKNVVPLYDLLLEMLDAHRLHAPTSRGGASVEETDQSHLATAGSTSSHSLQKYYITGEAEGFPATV

ER [2] = molecular target: T1, ER; test: In-cell western (ICW) ER degradation assay in T47D cells; type: cell-based; settings: 16 hrs
MCF-7 cells = settings: read-out: MCF7 Proliferation IC50; CellTiter-Glo, day 6
Procedure: (§1) In vitro assay can be accomplished by MCF-7 and T47D Cell Titer Glo (CTG) assay. MCF-7 and T47D cell (From HDB) are cultured in multi-well white plate with phenol red-free RPMI1640+10% CS-FBS+1% P/S medium (e.g., at 1,000 cells/well). On day 0: Cells are treated with compound at certain concentrations (e.g., 0.5 to 10000 nM) (DMSO and Staurosporine as control). On day 0 and day 6: add Cell Titer Glo reagent and read on EnVision after 30 min incubation for data generation.
(§2) • 1) Cell culture medium: phenol red-free RPMI1640+10% CS-FBS, 1% P/S
(§3) Day-1: MCF-7 and T47D cell (From HDB) were cultured in 384-well white plate with phenol red-free RPMI1640+10% CS-FBS+1% P/S medium (1,000 cells/well) for overnight at 37° C., 5% CO2 incubator.
(§4) Day 0: Cells were treated at desired compound concentrations (0.5 to 10000 nM) (DMSO and Staurosporine as control) for Day 6 at 37° C., 5% CO2 incubator.
(§5) Day 0 and Day 6: add Cell TiterGlo reagent and read on EnVision after 30 min incubation for data generation.

T47D cells = settings: read-out: T47D Proliferation IC50; CellTiter-Glo, day 6
Procedure: as §1, §2, §3, §4, §5

Sequence of CRBN/DDB1 (Q96SW2 whole entry): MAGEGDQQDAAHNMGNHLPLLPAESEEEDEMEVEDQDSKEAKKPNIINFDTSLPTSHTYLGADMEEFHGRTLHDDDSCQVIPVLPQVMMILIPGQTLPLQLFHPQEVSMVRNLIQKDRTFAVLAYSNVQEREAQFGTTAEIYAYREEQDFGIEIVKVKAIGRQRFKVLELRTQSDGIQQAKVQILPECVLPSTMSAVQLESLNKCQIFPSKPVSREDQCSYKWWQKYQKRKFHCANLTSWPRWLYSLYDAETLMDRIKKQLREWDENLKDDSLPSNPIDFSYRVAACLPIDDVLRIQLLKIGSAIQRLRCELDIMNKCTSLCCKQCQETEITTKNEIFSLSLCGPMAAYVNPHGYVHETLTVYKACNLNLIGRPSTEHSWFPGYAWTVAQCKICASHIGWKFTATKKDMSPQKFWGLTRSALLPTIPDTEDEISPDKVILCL
Sequence of CRBN/DDB1 (Q16531 whole entry partner): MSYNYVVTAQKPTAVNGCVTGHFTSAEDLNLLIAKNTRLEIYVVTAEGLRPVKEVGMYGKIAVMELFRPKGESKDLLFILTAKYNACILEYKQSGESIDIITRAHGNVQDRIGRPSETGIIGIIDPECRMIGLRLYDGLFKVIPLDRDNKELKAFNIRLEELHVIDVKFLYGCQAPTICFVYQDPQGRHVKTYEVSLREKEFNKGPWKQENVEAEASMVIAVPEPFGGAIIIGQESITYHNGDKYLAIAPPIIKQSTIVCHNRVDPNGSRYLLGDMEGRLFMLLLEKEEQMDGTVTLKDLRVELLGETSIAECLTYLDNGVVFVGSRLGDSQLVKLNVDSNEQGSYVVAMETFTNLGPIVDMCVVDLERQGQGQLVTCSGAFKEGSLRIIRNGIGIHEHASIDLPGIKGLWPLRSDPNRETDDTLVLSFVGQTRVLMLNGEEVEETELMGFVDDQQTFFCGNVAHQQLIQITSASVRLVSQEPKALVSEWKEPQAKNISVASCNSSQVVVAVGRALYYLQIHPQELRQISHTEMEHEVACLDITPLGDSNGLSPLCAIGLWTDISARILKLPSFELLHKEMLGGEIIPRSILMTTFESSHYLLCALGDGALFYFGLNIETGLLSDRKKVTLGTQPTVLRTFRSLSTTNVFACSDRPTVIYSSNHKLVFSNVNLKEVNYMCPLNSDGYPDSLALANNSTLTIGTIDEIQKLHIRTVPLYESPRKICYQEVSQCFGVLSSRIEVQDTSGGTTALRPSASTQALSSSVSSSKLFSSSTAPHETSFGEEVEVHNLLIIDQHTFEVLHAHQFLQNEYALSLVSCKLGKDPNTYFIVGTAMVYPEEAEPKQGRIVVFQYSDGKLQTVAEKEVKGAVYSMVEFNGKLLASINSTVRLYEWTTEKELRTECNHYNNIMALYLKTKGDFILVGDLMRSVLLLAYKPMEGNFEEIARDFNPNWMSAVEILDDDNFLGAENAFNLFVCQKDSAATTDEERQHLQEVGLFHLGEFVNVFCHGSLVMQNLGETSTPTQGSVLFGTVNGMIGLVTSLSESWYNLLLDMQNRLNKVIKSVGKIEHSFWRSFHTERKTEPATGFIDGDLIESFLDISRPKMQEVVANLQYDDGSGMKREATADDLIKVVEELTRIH

O=C1CCC(N2Cc3cc4c(cc3C2=O)OC[C@@H]2CN(CC3CCC5(CC3)CN(c3ccc([C@@H]6c7ccc(O)cc7OC[C@@H]6c6ccccc6)cc3)C5)CCN42)C(=O)N1 (stereo partly drawn) [Compound A53, 3-((S)-3-((2-(4-((3S,4R)-7-hydroxy-3-phenylchroman-4-yl)phenyl)-2-azaspiro[3.5]nonan-7-yl)methyl)-8-oxo-1,2,3,4,4a,5,8,10-octahydro-9H-pyrazino[1′,2′:4,5][1,4]oxazino[2,3-f]isoindol-9-yl)piperidine-2,6-dione]
pIC50 (CRBN/DDB1): 5.30 to 6.30 | pIC50 (ERα_LBD(GST)): > 8.30 | DC50 (ER [1]; ER degradation): 1 to 10 nM | MCF7 Dmax % (ER [1]; maximal ER degradation): B (“B”: >50% and <75%) | DC50 (ER [2]; ER degradation): 1 to 10 nM | T47D Dmax % (ER [2]; maximal ER degradation): A (“A”; >=75%) | pIC50 (MCF-7 cells): 6.30 to 7.30 | pIC50 (T47D cells): 6.30 to 7.30
